# US4323581A, “Method of treating carcinogenesis” (priority 1978, dated 1982)
# Experiments:
# [1] = tested on: tracheal epithelium; test: Reversal of keratinized squamous metaplastic lesions of vitamin A deficiency in tracheal organ culture; format: cell-based; conditions: for % of Cultures with Keratin and Keratohyaline Granules / % of Cultures with Respective Amounts of Squamous Metaplasia: None / % of Cultures with Respective Amounts of Squamous Metaplasia: Marked / % of Cultures with Respective Amounts of Squamous Metaplasia: Mild / % of Cultures with Respective Amounts of Squamous Metaplasia: Minimal / % of Cultures with Respective Amounts of Squamous Metaplasia: Severe: collected day 10; for % of Cultures with Respective Amounts of Squamous Metaplasia: Marked: marked = 10-40% squamous; for % of Cultures with Respective Amounts of Squamous Metaplasia: Mild: mild = 2-10% squamous; for % of Cultures with Respective Amounts of Squamous Metaplasia: Minimal: minimal = less than 2% squamous; for % of Cultures with Respective Amounts of Squamous Metaplasia: Severe: severe = more than 40% squamous
# Excerpt: N-(4-hydroxyphenyl)-all-trans-retinamide was compared with retinoic acid in an in vitro screening model for identifying retinoids having activity in preventing carcinogenesis in epithelial tissue. The experimental method, which is described in Experimental Lung Cancer:Intern'l Symp, 575-82, 1974, involves reversal of keratinization in tracheal organ culture.
# In brief summary, in the absence of retinoic acid or a synthetic retinoid having similar activity, the test organ culture of tracheal epithelium undergoes abnormal differentiation. Addition of small concentrations of retinoic acid (as low as 10^-9 M) will cause reversion to normal tracheal epithelium. Test compounds are compared in activity to retinoic acid or another active standard both as regards squamous metaplasia and keratin production, both of which are measures of abnormal development of the epithelial culture.
# In carrying out the tests reported in Table I, all tracheas were cultured for the first 3 days in medium without retinoid. At this time, some tracheas were collected, while the rest were cultured for a further week in medium containing either no retinoid, or retinoid added at the concentrations shown. These tracheas were collected on the 10th day of culture. Cultures were graded as to the percentage of their total epithelium showing squamous metaplasia on eight cross sections from the middle of each trachea. If more than 40% of the total epithelial length was squamous, it was graded as having severe squamous metaplasia; between 10-40% was graded as marked; between 2-10% was graded as mild; and less than 2% was graded as minimal.
# [2] = higher mammals; cited from earlier work
# [3] = tested on: tracheal epithelium; conditions: small concentrations, as low as; cited from earlier work
# [4] = U.S. Pat. No. 4,108,880; cited from earlier work
# [5] = LD50 in Swiss mice; conditions: mouse, in vivo
# Procedure: The drug is administered at regular intervals, conveniently at meal times or once daily.
# [6] = Target specificity in concentrating at the breast; conditions: in vivo
# [7] = tested on: epithelial cancer; test: Effectiveness in preventing epithelial cancer in mammals; format: in vivo; conditions: at reasonable dose levels
# [8] = tested on: breast cancer; test: Prevention of breast cancer in rats, oral dosing; format: in vivo; conditions: oral doses of 32 and 64 mg/kg/day
# [9] = tested on: MNU-induced mammary cancer; test: Inhibition of mammary carcinogenesis induced by N-methyl-N-nitrosourea (MNU), rat breast cancer; format: in vivo, Female Sprague-Dawley rats; conditions: Table III
# Excerpt: On the basis of the encouraging results summarized in the foregoing example, N-(4-hydroxyphenyl)-all-trans-retinamide was compared to retinyl acetate in the experimental assay for efficacy against rat breast cancer described in Nature Vol. 267, pp 620-621 (June 16, 1977), which measures the ability to inhibit mammary carcinogenesis induced by N-methyl-N-nitrosourea (MNU). The results of further extension of the tests, comparing the 4-hydroxyphenyl retinamide only to placebo, after 18 weeks with high dose MNU and 21 weeks with low dose MNU, are set forth in Table III. The results using these two different levels of MNU and two dietary levels of retinoid are shown graphically in FIGS. 1 and 2 after 18 weeks of testing.
# Animals: Female Sprague-Dawley rats obtained from ARS Sprague-Dawley.
# Crystalline MNU. Rats received 2 I.V. injections at 50 and 57
# High dose is 50 mg/kg; low dose 15 mg/kg.
# Retinoids were dissolved in solvent and blended into the diets.
# placed on diets 3 days after last MNU injection.
# 50 gm trioctanoin:ethanol (3:1), 0.05 ml Tenox 20, 0.05 ml
# 50 gm retinoid solvent/kg diet.
# High dose is 50 mg/kg; low dose 15 mg/kg. Rats on high dose of
# sacrificed after 18 weeks.
# Placebo: 50 gm retinoid solvent/kg diet.
# [10] = Accumulation in the liver; format: in vivo; conditions: unlike the natural retinyl esters
# [11] = tested on: MNU-induced mammary cancer; test: Inhibition of mammary carcinogenesis induced by N-methyl-N-nitrosourea (MNU), rat breast cancer; format: in vivo, Female Sprague-Dawley rats
# [12] = Toxicity compared to retinyl acetate; conditions: in vivo
# [13] = compared with sunscreening amounts of retinoic acid; U.S. Pat. No. 4,108,880; cited from earlier work
# [14] = Systemic toxicity; conditions: in vivo
# [15] = 18 weeks, MNU high dose (50 mg/kg), 391 mg/kg diet
# [16] = 21 weeks, MNU low dose (15 mg/kg), 391 mg/kg diet
# [17] = Table II, 73 days, MNU high dose (50 mg/kg), 391 mg/kg diet
# [18] = Table II, 73 days, MNU high dose (50 mg/kg), 782 mg/kg diet
# [19] = Table II, 73 days, MNU low dose (15 mg/kg), 391 mg/kg diet
# [20] = Table II, 73 days, MNU low dose (15 mg/kg), 782 mg/kg diet
# [21] = Table II, 73 days, saline, 391 mg/kg diet
# [22] = Table II, 73 days, saline, 782 mg/kg diet
# [23] = Table III, 18 weeks, MNU high dose (50 mg/kg), 782 mg/kg diet
# [24] = Table III, 21 weeks, MNU low dose (15 mg/kg), 782 mg/kg diet
# [25] = Table III, saline, 391 mg/kg diet
# [26] = Table III, saline, 782 mg/kg diet
# [27] = Table II, 73 days, MNU high dose (50 mg/kg), 328 mg/kg diet
# [28] = Table II, 73 days, MNU high dose (50 mg/kg), 656 mg/kg diet
# [29] = Table II, 73 days, MNU low dose (15 mg/kg), 328 mg/kg diet
# [30] = Table II, 73 days, MNU low dose (15 mg/kg), 656 mg/kg diet
# [31] = Table II, 73 days, saline, 328 mg/kg diet
# [32] = Table II, 73 days, saline, 656 mg/kg diet
compound,measurement,setting,value
"CC1=C(/C=C/C(C)=C/C=C/C(C)=C/C(=O)O)C(C)(C)CCC1 [Retinoic Acid, retinoic acid, reference compound]",% of Cultures with Keratin and Keratohyaline Granules,[1]; 10^-8 M,0%
same,% of Cultures with Respective Amounts of Squamous Metaplasia: None,[1]; 10^-8 M,27%
same,% of Cultures with Respective Amounts of Squamous Metaplasia: Marked,[1]; 10^-8 M,0%
same,% of Cultures with Respective Amounts of Squamous Metaplasia: Mild,[1]; 10^-8 M,23%
same,% of Cultures with Respective Amounts of Squamous Metaplasia: Minimal,[1]; 10^-8 M,49%
same,% of Cultures with Respective Amounts of Squamous Metaplasia: Severe,[1]; 10^-8 M,0%
same,% of Cultures with Keratin and Keratohyaline Granules,[1]; 10^-9 M,3%
same,% of Cultures with Respective Amounts of Squamous Metaplasia: None,[1]; 10^-9 M,16%
same,% of Cultures with Respective Amounts of Squamous Metaplasia: Marked,[1]; 10^-9 M,12%
same,% of Cultures with Respective Amounts of Squamous Metaplasia: Mild,[1]; 10^-9 M,32%
same,% of Cultures with Respective Amounts of Squamous Metaplasia: Minimal,[1]; 10^-9 M,37%
same,% of Cultures with Respective Amounts of Squamous Metaplasia: Severe,[1]; 10^-9 M,2%
same,% of Cultures with Keratin and Keratohyaline Granules,[1]; 10^-10 M,32%
same,% of Cultures with Respective Amounts of Squamous Metaplasia: None,[1]; 10^-10 M,9%
same,% of Cultures with Respective Amounts of Squamous Metaplasia: Marked,[1]; 10^-10 M,17%
same,% of Cultures with Respective Amounts of Squamous Metaplasia: Mild,[1]; 10^-10 M,43%
same,% of Cultures with Respective Amounts of Squamous Metaplasia: Minimal,[1]; 10^-10 M,4%
same,% of Cultures with Respective Amounts of Squamous Metaplasia: Severe,[1]; 10^-10 M,28%
same,toxicity at high dosage levels,[2],too toxic at high dosage levels to be of practical value for cancer prevention in higher mammals
same,lowest concentration causing reversion to normal tracheal epithelium,[3],10^-9 M
"CC1=C(/C=C/C(C)=C/C=C/C(C)=C/C(=O)Nc2ccc(O)cc2)C(C)(C)CCC1 [4-Hydroxyphenyl Retinamide, N-(4-hydroxyphenyl)-all-trans-retinamide]",efficacy relative to retinoic acid,[1]; 10^-8 M,at least as efficacious as retinoic acid
same,% of Cultures with Keratin and Keratohyaline Granules,[1]; 10^-8 M,0%
same,% of Cultures with Respective Amounts of Squamous Metaplasia: None,[1]; 10^-8 M,20%
same,% of Cultures with Respective Amounts of Squamous Metaplasia: Marked,[1]; 10^-8 M,0%
same,% of Cultures with Respective Amounts of Squamous Metaplasia: Mild,[1]; 10^-8 M,0%
same,% of Cultures with Respective Amounts of Squamous Metaplasia: Minimal,[1]; 10^-8 M,80%
same,% of Cultures with Respective Amounts of Squamous Metaplasia: Severe,[1]; 10^-8 M,0%
same,efficacy relative to retinoic acid,[1]; 10^-9 M,nearly as efficaceous
same,% of Cultures with Keratin and Keratohyaline Granules,[1]; 10^-9 M,40%
same,% of Cultures with Respective Amounts of Squamous Metaplasia: None,[1]; 10^-9 M,20%
same,% of Cultures with Respective Amounts of Squamous Metaplasia: Marked,[1]; 10^-9 M,0%
same,% of Cultures with Respective Amounts of Squamous Metaplasia: Mild,[1]; 10^-9 M,30%
same,% of Cultures with Respective Amounts of Squamous Metaplasia: Minimal,[1]; 10^-9 M,20%
same,% of Cultures with Respective Amounts of Squamous Metaplasia: Severe,[1]; 10^-9 M,30%
same,efficacy,[1]; 10^-10 M,virtually inefficacious
same,% of Cultures with Keratin and Keratohyaline Granules,[1]; 10^-10 M,100%
same,% of Cultures with Respective Amounts of Squamous Metaplasia: None,[1]; 10^-10 M,0%
same,% of Cultures with Respective Amounts of Squamous Metaplasia: Marked,[1]; 10^-10 M,75%
same,% of Cultures with Respective Amounts of Squamous Metaplasia: Mild,[1]; 10^-10 M,12%
same,% of Cultures with Respective Amounts of Squamous Metaplasia: Minimal,[1]; 10^-10 M,0%
same,% of Cultures with Respective Amounts of Squamous Metaplasia: Severe,[1]; 10^-10 M,12%
same,ultraviolet absorption,[4],good ultraviolet absorber
same,LD50,[5]; ip,436 mg/kg
same,LD50,[5]; po,> 400 mg/kg
same,target specificity in concentrating at the breast,[6],adequate target specificity in concentrating at the breast
same,effectiveness in preventing epithelial cancer in mammals,[7],good effectiveness in preventing epithelial cancer in mammals
same,prevention of breast cancer in rats,[8],very effective in preventing breast cancer in rats
same,Mammary Tumor Incidence,[9]; [15],13/16
same,Mammary Tumor Incidence (%),[9]; [15],81%
same,Mammary Tumor Incidence (%),"[9]; 18 weeks, MNU high dose (50 mg/kg), 782 mg/kg diet",64%
same,Mammary Tumor Incidence (%),[9]; [16],12%
same,Total Number of Tumors,[9]; [16],5
same,Mammary Tumor Incidence,"[9]; saline, 391 mg/kg diet",0/10
same,Total Number of Tumors,"[9]; saline, 782 mg/kg diet",0
same,accumulation in the liver,[10],does not accumulate in the liver in appreciable amounts
same,efficacy relative to retinyl acetate,[11]; MNU-induced mammary carcinogenesis,substantially as efficacious as retinyl acetate
same,Mammary Tumor Incidence,[11]; [17],5/16
same,Mammary Tumor Incidence (%),[11]; [17],31%
same,Mammary Tumor Incidence,[11]; [18],0/17
same,Mammary Tumor Incidence (%),[11]; [18],0%
same,Mammary Tumor Incidence,[11]; [19],0/40
same,Mammary Tumor Incidence (%),[11]; [19],0%
same,Mammary Tumor Incidence,[11]; [20],0/39
same,Mammary Tumor Incidence (%),[11]; [20],0%
same,Mammary Tumor Incidence,[11]; [21],0/10
same,Mammary Tumor Incidence (%),[11]; [21],0%
same,Mammary Tumor Incidence,[11]; [22],0/10
same,Mammary Tumor Incidence (%),[11]; [22],0%
same,Total Number of Tumors,"[11]; Table III, 18 weeks, MNU high dose (50 mg/kg), 391 mg/kg diet",48
same,Mammary Tumor Incidence,[11]; [23],11/17
same,Total Number of Tumors,[11]; [23],37
same,Mammary Tumor Incidence,"[11]; Table III, 21 weeks, MNU low dose (15 mg/kg), 391 mg/kg diet",5/40
same,Mammary Tumor Incidence,[11]; [24],3/39
same,Mammary Tumor Incidence (%),[11]; [24],8%
same,Total Number of Tumors,[11]; [24],4
same,Mammary Tumor Incidence (%),[11]; [25],0%
same,Total Number of Tumors,[11]; [25],0
same,Mammary Tumor Incidence,[11]; [26],0/10
same,Mammary Tumor Incidence (%),[11]; [26],0%
same,toxicity relative to retinyl acetate,[12],less toxic
same,irritating effect on skin,[13],does not have the irritating effect on skin that would be expected from the use of sunscreening amounts of retinoic acid
same,systemic toxicity,[14],low systemic toxicity
"CC(=O)OC/C=C(C)/C=C/C=C(C)/C=C/C1=C(C)CCCC1(C)C [Retinyl Acetate, retinyl acetate, reference compound]",Mammary Tumor Incidence,[11]; [27],5/19
same,Mammary Tumor Incidence (%),[11]; [27],26%
same,Mammary Tumor Incidence,[11]; [28],4/17
same,Mammary Tumor Incidence (%),[11]; [28],24%
same,Mammary Tumor Incidence,[11]; [29],0/39
same,Mammary Tumor Incidence (%),[11]; [29],0%
same,Mammary Tumor Incidence,[11]; [30],0/40
same,Mammary Tumor Incidence (%),[11]; [30],0%
same,Mammary Tumor Incidence,[11]; [31],0/10
same,Mammary Tumor Incidence (%),[11]; [31],0%
same,Mammary Tumor Incidence,[11]; [32],0/10
same,Mammary Tumor Incidence (%),[11]; [32],0%
same,toxicity at high dosage levels,[2],too toxic at high dosage levels to be of practical value for cancer prevention in higher mammals
